Laboratory results: patent US10508310B2, “Method of predicting a response to an anti-tumor treatment” (SORBONNE UNIVERSITE, priority 2013, dated 2019)

Key:
Assay type in all cases: in vivo, mice
BC52 breast cancer PDX = experiment: Tumor growth rate in BC52 patient-derived xenograft treated by DPT-C9h
Method: (§1) Breast-cancer patient xenografts (PDXs) were obtained by direct implant of patient tumor fragments in immunocompromised mice. (Arrouss Et al, PlosOne. 2013. 8, e60816).
(§2) Nine models treated by DPT-C9h (5 mg/kg/d IP, 5 days weekly, 4 to 6 weeks) were selected for the study, i.e. 7 breast cancer PDXs (BC11, BC52, BC143, BC146, BC173, BC227, and BC256), and 2 ovarian cancer PDXs (OV14 and OVM33). Three tumors of both control and treated groups were collected at the end of therapy, except for the BC146 for which 2 control tumors and 3 treated tumors were obtained. For each collected tumor, tumor volume was estimated according to the following formulae: V=a×b2/2, where a and b are the largest and the smallest perpendicular tumor diameters.
(§3) In a second time, a median TGR was defined for the control and treated groups of each PDX model. Finally, a ratio was calculated for each PDX model, as: median TGR of the treated group/median TGR of the corresponding control group. The inventors considered that a model was responder to DPT-C9h if the ratio was ≤0.5 (p<0.05), and resistant if the ratio was ≥0.8. In this, 3 models were considered as responder (BC52, BC173 and OV14), 4 as resistant (BC11, BC146, BC227, and BC256), and 2 remained undefined and were excluded from analyses (BC143 and OVM33) (Table 1).

BC227 breast cancer PDX = experiment: Tumor growth rate in BC227 patient-derived xenograft treated by DPT-C9h
Method: as §1, §2, §3

OVM33 ovarian cancer PDX = experiment: Tumor growth rate in OVM33 patient-derived xenograft treated by DPT-C9h
Method: as §2, §3

BC143 breast cancer PDX = experiment: Tumor growth rate in BC143 patient-derived xenograft treated by DPT-C9h
Method: as §1, §2, §3

BC173 breast cancer PDX = experiment: Tumor growth rate in BC173 patient-derived xenograft treated by DPT-C9h
Method: as §1, §2, §3

BC146 breast cancer PDX = experiment: Tumor growth rate in BC146 patient-derived xenograft treated by DPT-C9h
Method: as §1, §2, §3

OV14 ovarian cancer PDX = experiment: Tumor growth rate in OV14 patient-derived xenograft treated by DPT-C9h
Method: as §2, §3

BC11 breast cancer PDX = experiment: Tumor growth rate in BC11 patient-derived xenograft treated by DPT-C9h
Method: as §1, §2, §3

BC256 breast cancer PDX = experiment: Tumor growth rate in BC256 patient-derived xenograft treated by DPT-C9h
Method: as §1, §2, §3

[1] = TGR of treated group / TGR of control group
[2] = TGR=Vf/V1, 5 mg/kg/d IP, 5 days weekly, 4 to 6 weeks, end of therapy
[3] = responder if ratio ≤0.5 (p<0.05), resistant if ratio ≥0.8

VKKKKIKREIKI-YVETLDGIFEQWAHSEDL (VKKKKIKREIKIYVETLDGIFEQWAHSEDL; chimeric peptide) [DPT-C9h]
Ratio TGR (BC52 breast cancer PDX; [1]): 0.38
Mean TGR DPT (BC52 breast cancer PDX; [2]): 15.3
conclusion (responder / resistant) (BC52 breast cancer PDX; class from ratio TGR): + (+: responder)
model response to DPT-C9h (in words) (BC52 breast cancer PDX; [3]): responder
Ratio TGR (BC227 breast cancer PDX; [1]): 1.38
Mean TGR DPT (BC227 breast cancer PDX; [2]): 6.0
conclusion (responder / resistant) (BC227 breast cancer PDX; class from ratio TGR): − (−: resistant)
model response to DPT-C9h (in words) (BC227 breast cancer PDX; [3]): resistant
Ratio TGR (OVM33 ovarian cancer PDX; [1]): 0.65
Mean TGR DPT (OVM33 ovarian cancer PDX; [2]): 35.0
conclusion (responder / resistant) (OVM33 ovarian cancer PDX; class from ratio TGR): ND (ND: unidentified)
model response to DPT-C9h (in words) (OVM33 ovarian cancer PDX; [3]): undefined
Ratio TGR (BC143 breast cancer PDX; [1]): 0.68
Mean TGR DPT (BC143 breast cancer PDX; [2]): 27.7
conclusion (responder / resistant) (BC143 breast cancer PDX; class from ratio TGR): ND (ND: unidentified)
model response to DPT-C9h (in words) (BC143 breast cancer PDX; [3]): undefined
Ratio TGR (BC173 breast cancer PDX; [1]): 0.45
Mean TGR DPT (BC173 breast cancer PDX; [2]): 6.0
conclusion (responder / resistant) (BC173 breast cancer PDX; class from ratio TGR): + (+: responder)
model response to DPT-C9h (in words) (BC173 breast cancer PDX; [3]): responder
Ratio TGR (BC146 breast cancer PDX; [1]): 0.96
Mean TGR DPT (BC146 breast cancer PDX; [2]): 34.7
conclusion (responder / resistant) (BC146 breast cancer PDX; class from ratio TGR): − (−: resistant)
model response to DPT-C9h (in words) (BC146 breast cancer PDX; [3]): resistant
Ratio TGR (OV14 ovarian cancer PDX; [1]): 0.44
Mean TGR DPT (OV14 ovarian cancer PDX; [2]): 10.7
conclusion (responder / resistant) (OV14 ovarian cancer PDX; class from ratio TGR): + (+: responder)
model response to DPT-C9h (in words) (OV14 ovarian cancer PDX; [3]): responder
Ratio TGR (BC11 breast cancer PDX; [1]): 0.90
Mean TGR DPT (BC11 breast cancer PDX; [2]): 24.3
conclusion (responder / resistant) (BC11 breast cancer PDX; class from ratio TGR): − (−: resistant)
model response to DPT-C9h (in words) (BC11 breast cancer PDX; [3]): resistant
Ratio TGR (BC256 breast cancer PDX; [1]): 1.23
Mean TGR DPT (BC256 breast cancer PDX; [2]): 38.7
conclusion (responder / resistant) (BC256 breast cancer PDX; class from ratio TGR): − (−: resistant)
model response to DPT-C9h (in words) (BC256 breast cancer PDX; [3]): resistant
